Experimental data as given in PubChem BioAssay (NCI).
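Interpolation was linear, between the two tested concentrations surrounding the appropriate level; five concentrations were tested over 48 hours in 96-well plates. TGI: total growth inhibition.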

Tests used:
Test in all cases: inhibition of tumour cell growth, NCI panel, 48 h
[1] = test system: SF-539 CNS
[2] = test system: SF-295 CNS
[3] = test system: M14 melanoma
[4] = test system: HOP-92 NSCLC
[5] = test system: ACHN renal
[6] = test system: UACC-257 melanoma
[7] = test system: UO-31 renal
[8] = test system: HS 578T breast
[9] = test system: OVCAR-8 ovarian
[10] = test system: SW-620 colon
[11] = test system: LOX IMVI melanoma
[12] = test system: NCI-H23 lung
[13] = test system: HT29 colon
[14] = test system: TK-10 renal
[15] = test system: RPMI-8226 leukemia
[16] = test system: NCI-H226 lung
[17] = test system: MDA-MB-231 breast
[18] = test system: SF-268 CNS
[19] = test system: MDA-MB-435
[20] = test system: T-47D breast
[21] = test system: OVCAR-4 ovarian
[22] = test system: NCI-H522 lung
[23] = test system: U251 CNS
[24] = test system: BT-549 breast
[25] = test system: SK-OV-3 ovarian
[26] = test system: NCI-H460 lung
[27] = test system: KM12 colon
[28] = test system: HL-60(TB) leukemia
[29] = test system: CAKI-1 renal
[30] = test system: K-562 leukemia
[31] = test system: RXF 393 renal
[32] = test system: SNB-75 CNS
[33] = test system: A549 NSCLC
[34] = test system: MALME-3M melanoma
[35] = test system: SK-MEL-28 melanoma
[36] = test system: SR leukemia
[37] = test system: IGROV1 ovarian
[38] = test system: PC-3 prostate
[39] = test system: NCI/ADR-RES ovarian
[40] = test system: HCT-116 colon
[41] = test system: EKVX NSCLC
[42] = test system: MOLT-4 leukemia
[43] = test system: SK-MEL-5 melanoma
[44] = test system: OVCAR-5 ovarian
[45] = test system: COLO 205 colon
[46] = test system: HCT-15 colon
[47] = test system: HOP-62 NSCLC
[48] = test system: MDA-N
[49] = test system: SK-MEL-2 melanoma
[50] = test system: SN12C renal
[51] = test system: SNB-19 CNS
[52] = test system: UACC-62 melanoma
[53] = test system: OVCAR-3 ovarian
[54] = test system: DU-145 prostate
[55] = test system: 786-0 renal
[56] = test system: A498 renal

Measured: TGI

Nc1ncnc2c1ncn2C1OC(CO)C(O)C1N (stereo unspecified)
> 100 µM: [1] | [2] | [3] | [4] | [5] | [6] | [7] | [8] | [9] | [10] | [11] | [12] | [13] | [14] | [15] | [16] | [17] | [18] | [19] | [20] | [21] | [22] | [23] | [24] | [25] | [26] | [27] | [28] | [29] | [30] | [31] | [32] | [33] | [34] | [35] | [36] | [37] | [38] | [39] | [40] | [41] | [42] | [43] | [44] | [45] | [46] | [47] | [48] | [49] | [50] | [51] | [52] | [53] | [54] | [55] | [56]
